Like-named read-outs stand apart in the source and are kept apart here.
Experiments:
[1] = biological target: T1, recombinant human Caspase-1 (Homo sapiens, UniProt P29466); assay: Caspase-1 inhibitory activity, fluorescent substrate Ac-YVAD-AFC; type: biochemical
T1 construct: purchased Enzo life science
T1 sequence (P29466 120-297 limits assumed): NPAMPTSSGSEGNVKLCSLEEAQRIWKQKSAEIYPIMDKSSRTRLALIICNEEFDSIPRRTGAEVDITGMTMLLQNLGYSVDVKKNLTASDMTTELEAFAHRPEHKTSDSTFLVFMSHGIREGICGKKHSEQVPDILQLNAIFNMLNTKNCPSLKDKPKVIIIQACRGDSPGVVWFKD
T1 sequence (P29466 317-404 limits assumed): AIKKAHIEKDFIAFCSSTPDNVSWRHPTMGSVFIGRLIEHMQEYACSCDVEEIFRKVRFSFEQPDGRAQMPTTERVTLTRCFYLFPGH
Description: To determine the Caspase-1 inhibitory activity of the compounds of the present invention prepared in Example, Caspase-1 activity was measured using a substrate with a fluorescent dye attached to it. […] The compound was dissolved in DMSO and stored at −20° C. Enzymatic reactions were carried out in a buffer comprising 50 mM HEPES (pH 8.0), 50 mM KCl, 200 mM NaCl, 10 mM DTT, 0.1% CHAPS (w/v). Enzyme inactivation was measured in the presence of different concentrations of the compound using the fluorescent substrate N-Acetyl-Tyr-Val-Ala-Asp-7-amido-4-trifluoromethylcoumarin (Ac-YVAD-AFC) (Sigma) at a concentration of 50 μM and 1 unit of recombinant human Caspase-1 (Enzo life science). A CLARIOstar Plus spectrometer (BMG Labtech) was used to measure the reaction rate as a function of time in the 400/505 nm (Ex/Em) wavelength band. […] If kobs/[I] is 20 or more, it is denoted as A, if it is 10 or more but less than 20, it is denoted as B, if it is 1 or more but less than 10, it is denoted as C, and if it is less than 1, it is denoted as D.
In the above equation, At means the enzyme reaction rate at time t (min), and Amax means the maximum reaction rate.

[2] = system: Secreted IL-1β in THP-1 cells; assay: Interleukin-1β inhibitory activity in human monocytic cells THP-1 (ELISA); type: cell-based; details: compound 100 nM, PMA-differentiated THP-1, LPS 10 μg/ml then 5 mM ATP, 24 h
Description: Caspase-1 is known as […] (ICE). Activated Caspase-1 is involved in the cleavage of pro-form IL-1β to produce the mature form, which is then secreted to induce inflammation. Therefore, the compounds identified in Experimental example 1 were tested to determine if their Caspase-1 inhibitory activity affected the production of […].
THP-1 (ATCC) cells were cultured in RPMI 1640 (Hyclone) growth medium comprising 10% Fetal bovine serum (FBS, Gibco) and antibiotics (100 U/ml Penicillin, 0.1 mg/ml Streptomycin, Cytiva) under 37° C., 5% CO2 conditions. Cultured THP-1 cells were seeded in growth medium to a concentration of 3×10^5 cells/well in 24-well plates (Celvest) and then treated with 1 μM Phorbol 12-myristate 13-acetate (PMA) (Sigma) for 24 hours to induce differentiation. Differentiated THP-1 were pre treated with 10 μg/ml Lipopolysaccharide (LPS, from E. coli 0111:B4 (InvivoGen)) in serum free RPMI 1640 medium for 24 hours to induce an inflammatory response. After removal of LPS, the compounds were pretreated for 1 h at a concentration of 100 nM using the same medium, followed by the addition of 5 mM ATP (InvivoGen) and incubation for 24 h in an incubator. The treated medium was collected and centrifuged, and IL-1β was quantified using an Enzyme linked immunoassay kit (ELISA kit, R&D system), and absorbance was measured at 450 nm using a CLARIOstar Plus spectrometer. Inhibitory activity was denoted as a if it was 50% or more, b if it was 30% or more but less than 50%, c if it was 10% or more but less than 30%, and d if it was less than 10%.

Jurkat cells = assay: Apoptosis inhibition activity in human T-lymphocyte cells Jurkat (anti-FAS antibody, intracellular ATP); type: cell-based; details: compound 50 nM, 1 μg/ml anti-FAS antibody 24 h, ATP luminescence
Description: To evaluate the effect of the compound of the present invention on apoptosis, Jurkat (ATCC) cells were treated with anti-FAS antibody CH-11 (Merck) to induce apoptosis via the Fas (CD95) receptor, which was assessed by the amount of intracellular ATP.
Jurkat cells were cultured in RPMI 1640 growth medium comprising 10% FBS and antibiotics (100 U/ml Penicillin, 0.1 mg/ml Streptomycin) under 37° C., 5% CO2 conditions. Cultured cells were seeded in growth medium to a concentration of 8×10^4 cells/well in 96-well plates (SPL), pretreated with compound at a concentration of 50 nM for 1 hour, and then treated with 1 μg/ml anti-FAS antibody for 24 hours in an incubator. After 24 h, an ATP lite Luminescence assay kit (PerkinElmer) was used to measure ATP and luminescence was measured at 580 nm using a CLARIOstar Plus spectrometer. If the inhibitory activity is 30% or more, it is denoted as a′, if it is 20% or more but less than 30%, it is denoted as b′, if it is 10% or more but less than 20%, it is denoted as c′, and if it is less than 10%, it is denoted as d′.

[3] = pH 8, 1 unit recombinant human Caspase-1, 50 μM Ac-YVAD-AFC, read-out: kobs/[I] Caspase-1
[4] = pH 8, read-out: kobs/[I] Caspase-1

| SMILES | kinact/KI [1, 3] [M⁻¹ s⁻¹] | inhibition at 0.1 µM [2] [%] | inhibition at 0.05 µM (Jurkat cells) [%] | kinact/KI [1, 4] [M⁻¹ s⁻¹] |
| --- | --- | --- | --- | --- |
| O=C(O)CC(NC(=O)CN1Cc2ccc(-c3ccc4occc4c3)cc2C1=O)C(=O)CF (stereo not shown) [Compound 41, 3-(2-(6-(benzofuran-5-yl)-1-oxoisoindolin-2-yl)acetamido)-5-fluoro-4-oxopentanoic acid] |  | < 10 | < 10 | 0.0167 to 0.167 |
| O=C(O)CC(NC(=O)CN1Cc2ccc(-c3coc4ccccc34)cc2C1=O)C(=O)CF (stereo not shown) [Compound 39, 3-(2-(6-(benzofuran-3-yl)-1-oxoisoindolin-2-yl)acetamido)-5-fluoro-4-oxopentanoic acid] |  | < 10 | < 10 | 0.0167 to 0.167 |
| CC[C@@H](C(=O)N[C@@H](CC(=O)O)C(=O)COc1c(F)c(F)cc(F)c1F)N1Cc2ccc(-c3ccc4[nH]c(=O)[nH]c4c3)cc2C1=O [Compound 52, (S)-4-oxo-3-((S)-2-(1-oxo-6-(2-oxo-2,3-dihydro-1H-benzo[d]imidazol-5-yl)isoindolin-2-yl)butanamido)-5-(2,3,5,6-tetrafluorophenoxy)pentanoic acid] |  | 10 to 30 | 10 to 20 | > 0.333 |
| CC[C@@H](C(=O)NC(CC(=O)O)C(=O)CF)N1Cc2cc(-c3ccc4c(c3)OCCO4)ccc2C1=O (stereo partly drawn) [Compound 58, 3-((S)-2-(5-(2,3-dihydrobenzo[b][1,4]dioxin-6-yl)-1-oxoisoindolin-2-yl)butanamido)-5-fluoro-4-oxopentanoic acid] |  | 10 to 30 | 10 to 20 | 0.0167 to 0.167 |
| CCC(C(=O)NC(CC(=O)O)C(=O)CF)N1Cc2ccc(-c3cnc4ccccc4c3)cc2C1=O (stereo not shown) [Compound 37, 5-fluoro-4-oxo-3-(2-(1-oxo-6-(quinolin-3-yl)isoindolin-2-yl)butanamido)pentanoic acid] |  | 10 to 30 | < 10 | 0.0167 to 0.167 |
| CC[C@@H](C(=O)N[C@@H](CC(=O)O)C(=O)COc1c(F)c(F)cc(F)c1F)N1Cc2ccc(-c3ccc4c(c3)OCCO4)cc2C1=O [Compound 51, (S)-3-((S)-2-(6-(2,3-di hydrobenzo[b][1,4]dioxin-6-yl)-1-oxoisoindolin-2-yl)butanamido)-4-oxo-5-(2,3,5,6-tetrafluorophenoxy)pentanoic] | 0.167 to 0.333 | 30 to 50 | 20 to 30 |  |
| CCC(C(=O)NC(CC(=O)O)C(=O)CF)N1Cc2ccc(-c3cccc4ccncc34)cc2C1=O (stereo not shown) [Compound 35, 5-fluoro-3-(2-(6-(isoquinolin-8-yl)-1-oxoisoindolin-2-yl)butanamido)-4-oxopentanoic acid] |  | < 10 |  | 0.0167 to 0.167 |
| CC[C@@H](C(=O)NC(CC(=O)O)C(=O)CF)N1Cc2cc(-c3csc4ccccc34)ccc2C1=O (stereo partly drawn) [Compound 59, 3-((S)-2-(5-(benzo[b]thiophen-3-yl)-1-oxoisoindolin-2-yl)butanamido)-5-fluoro-4-oxopentanoic acid] |  | < 10 |  | < 0.0167 |

Second part, led by results:

| kinact/KI [1, 3] [M⁻¹ s⁻¹] | SMILES | inhibition at 0.1 µM [2] [%] | inhibition at 0.05 µM (Jurkat cells) [%] | kinact/KI [1, 4] [M⁻¹ s⁻¹] |
| --- | --- | --- | --- | --- |
| > 0.333 | CCC(C(=O)NC(CC(=O)O)C(=O)CF)N1Cc2ccc(-c3coc4ccccc34)cc2C1=O (stereo not shown) [Compound 22, 3-(2-(6-(benzofuran-3-yl)-1-oxoisoindolin-2-yl)butanamido)-5-fluoro-4-oxopentanoic acid] | 30 to 50 | 10 to 20 |  |
| 0.0167 to 0.167 | CCC(C(=O)NC(CC(=O)O)C(=O)CF)N1Cc2ccc(-c3ccc4c(c3)OCCO4)cc2C1=O (stereo not shown) [Compound 27, 3-(2-(6-(2,3-dihydrobenzo[b][1,4]dioxin-6-yl)-1-oxoisoindolin-2-yl)butanamido)-5-fluoro-4-oxopentanoic acid] | 10 to 30 | ≥ 30 |  |
| 0.0167 to 0.167 | CCC(C(=O)NC(CC(=O)O)C(=O)CF)N1Cc2ccc(N3CCn4cc(C(F)(F)F)nc4C3)cc2C1=O (stereo not shown) [Compound 10, 5-fluoro-4-oxo-3-(2-(1-oxo-6-(2-(trifluoromethyl)-5,6-dihydroimidazo[1,2-a]pyrazin-7(8H)-yl)isoindolin-2-yl)butanamido)pentanoic acid] | 30 to 50 | 10 to 20 |  |
| 0.167 to 0.333 | CC(C)[C@@H](C(=O)NC(CC(=O)O)C(=O)CF)N1Cc2ccc(-c3coc4ccccc34)cc2C1=O (stereo partly drawn) [Compound 44, 3-((S)-2-(6-(benzofuran-3-yl)-1-oxoisoindolin-2-yl)-3-methylbutanamido)-5-fluoro-4-oxopentanoic acid] | ≥ 50 | 20 to 30 |  |
| 0.0167 to 0.167 | CC[C@@H](C(=O)NC(CC(=O)O)C(=O)CF)N1Cc2ccc(-c3ccc4c(c3)OCCO4)cc2C1=O (stereo partly drawn) [Compound 55, 3-((S)-2-(6-(2,3-dihydrobenzo[b][1,4]dioxin-6-yl)-1-oxoisoindolin-2-yl)butanamido)-5-fluoro-4-oxopentanoic acid] | 30 to 50 | ≥ 30 |  |
| 0.0167 to 0.167 | CCC(C(=O)NC(CC(=O)O)C(=O)CF)N1Cc2ccc(-c3ccc(C(F)(F)F)nc3)cc2C1=O (stereo not shown) [Compound 20, 5-fluoro-4-oxo-3-(2-(1-oxo-6-(6-(trifluoromethyl)pyridin-3-yl)isoindolin-2-yl)butanamido)pentanoic acid] | 10 to 30 |  |  |
| 0.0167 to 0.167 | CCC(C(=O)NC(CC(=O)O)C(=O)CF)N1Cc2ccc(-c3cnn(C)c3)cc2C1=O (stereo not shown) [Compound 24, 5-fluoro-3-(2-(6-(1-methyl-1H-pyrazol-4-yl)-1-oxoisoindolin-2-yl)butanamido)-4-oxopentanoic acid] | 10 to 30 |  |  |
| 0.0167 to 0.167 | CCC(C(=O)NC(CC(=O)O)C(=O)CF)N1Cc2ccc(-c3ccc(C(F)(F)F)cc3)cc2C1=O (stereo not shown) [Compound 14, 5-fluoro-4-oxo-3-(2-(1-oxo-6-(4-(trifluoromethyl)phenyl)isoindolin-2-yl)butanamido)pentanoic acid] | < 10 |  |  |
| 0.0167 to 0.167 | CCC(C(=O)NC(CC(=O)O)C(=O)CF)N1Cc2ccc(-c3ccc(S(C)(=O)=O)cc3F)cc2C1=O (stereo not shown) [Compound 12, 5-fluoro-3-(2-(6-(2-fluoro-4-(methylsulfonyl)phenyl)-1-oxoisoindolin-2-yl)butanamido)-4-oxopentanoic acid] | 10 to 30 |  |  |
| < 0.0167 | CCC(C(=O)NC(CC(=O)O)C(=O)CF)N1Cc2ccc(Nc3cccc4ccccc34)cc2C1=O (stereo not shown) [Compound 11, 5-fluoro-3-(2-(6-(naphthalen-1-ylamino)-1-oxoisoindolin-2-yl)butanamido)-4-oxopentanoic acid] | 30 to 50 |  |  |
| 0.0167 to 0.167 | CCC(C(=O)NC(CC(=O)O)C(=O)CF)N1Cc2ccc(-c3cnc(N)nc3)cc2C1=O (stereo not shown) [Compound 21] | 30 to 50 |  |  |

Reference: patent US20250109135A1, “NOVEL ISOINDOLINONE DERIVATIVE COMPOUNDS AS CASPASE INHIBITORS” (INNOVO THERAPEUTICS INC., priority 2022, published 2025)
